# In US20060128688A1, “Asenapine for the treatment of schizophrenia in a patient with overweight or predisposition for overweight” (priority 2003, published 2006):
# Where “and” joins values, the source holds several entries; their conditions need not be identical. Equal entries are not always repeated. Where two headings read alike, the source gives them in different places.
# Key:
# [1] = test system: subjects with acute exacerbation of their schizophrenic illness; test: Randomized double blind, fixed-dose 6-week trial: efficacy on disease symptoms (PANSS); type: in vivo, human; conditions: asenapine 5 mg twice a day sublingual, risperidone 3 mg twice daily, 6 weeks, compared with placebo
# [2] = among atypical antipsychotics, literature review; cited from earlier work
# [3] = All-Subjects-Treated Group, baseline to day 42 or final day of treatment
SMILES,efficacy in reducing the symptoms of schizophrenia [1],number of subjects with greater than 10% weight gain from baseline (All-Subjects-Treated Group),number of subjects (n) with clinically significant decrease of ≧7% from baseline in body weight [3],number of subjects (n) with clinically significant increase of ≧7% from baseline in body weight [3],weight gain associated with the drug [2],other results
"CN1C[C@@H]2c3ccccc3Oc3ccc(Cl)cc3[C@H]2C1 (relative stereo) [asenapine, trans-5-chloro-2-methyl-2,3,3a,12b-tetrahydro-1H-dibenz[2,3:6,7]oxepino[4,5-c]pyrrole]",significantly more effective than placebo,1,0,2,,"subjects with clinically significant decrease of ≧7% from baseline in body weight, % [3]: 0.0%; subjects with clinically significant weight gain (increase from baseline of ≧7%), % [3]: 4% and 4.3%; subjects with clinically significant weight gain (increase from baseline of ≧7%), % (All-Subjects-Treated Group, baseline to day 42 or final day of treatment, listed as Asenapine): 4.3%; increase in body weight from baseline (at end point, group result): 0.5%; other side effects (overall conclusion of the 6-week trial): minimal other side effects"
Cc1cc2c(s1)Nc1ccccc1N=C2N1CCN(C)CC1 [olanzapine],,,,,largest weight gains,
OCCOCCN1CCN(C2=Nc3ccccc3Sc3ccccc32)CC1 [quetiapine],,,,,smallest,
"Cc1nc2n(c(=O)c1CCN1CCC(c3noc4cc(F)ccc34)CC1)CCCC2 [risperidone, reference compound]",significantly more effective than placebo,2,1,8,modest weight changes that are not dose related,
O=C1Cc2cc(CCN3CCN(c4nsc5ccccc45)CC3)c(Cl)cc2N1 [ziprasidone],,,,,smallest,
